The values that follow come from patent publication US20040018581A1, “Method for discovering substances for inhibiting enzymes” (Pharmacia and UpJohn Company, priority 2002, published 2004).

SMILES strings stand for the structures.

Assay [1] has as its system Δgpd1-pYES2/m1pdh (Saccharomyces cerevisiae Δgpd1 expressing Eimeria tenella m1pdh). The assay can be described thus: Growth inhibition of yeast transformant Δgpd1-pYES2/m1pdh in liquid YEPD with or without 1.5 M NaCl (OD 600). The class given is cell-based. As to the method:
(§1) Transformants growing on high salt plates were picked and grown in 18×150 mm glass culture tubes containing 10 ml liquid YEPD medium or liquid YEPD medium with 1.5 M NaCl. These tubes were inoculated with approximately 10^5 cells and cultured at 30° C. on a roller bottle. Growth rates were recorded in terms of optical density values at various times after inoculation. Growth rates were also monitored in 96-well plates using the indicator dye Alamar Blue (BioSource International, Camarillo, Calif.) as previously described by Klein et al., (1997b). In 96-well plate experiments, each well contained approximately 10^4 cells (in 20 ul medium) inoculated into 180 ul liquid YEPD medium or liquid YEPD medium containing 1.5 M NaCl. These plates were then incubated at 30° C. for 24 or 48 hours. At that time, 20 ul Alamar Blue solution was added to each well and the color allowed to develop for 5-30 minutes. Color changes in each well were noted after visual inspection and recorded.
(§2) Nitrophenide, a known inhibitor of MIPDH (Schmatz 1997), was used to validate the assay. The Δgpd1transformed with pYES21/m1pdh was grown in liquid YEPD medium, either supplemented with 1.5 M NaCal or not and containing one of 3 concentrations of nitrophenide (Aldrich Chemical Co.) dissolved in DMSO. Experiments were conducted in glass culture tubes prepared and processed as described above. Growth in nitrophenide-containing media was compared to growth in identical medium lacking nitrophenide by measuring and recording changes at OD 600 nm after 24, 48 or 72 hours in culture as described above.
(§3) Test groups of each sample organism were inoculated into liquid cultures of YEPD and YEPD with 1.5 M NaCl. Rate of growth was estimated by recording OD 600 values at 24 hr intervals. All strains grew equally well in YEPD, but growth rates in YEPD with 1.5 M NaCl were distinctly different between transformants expressing mt1D or m1pdh and controls as shown in FIG. 3.
Nitrophenide was dissolved in DMSO and added to cultures at final concentrations of 1 μM, 2.5 μM or 10 μM. DMSO alone was also tested. Little toxicity was apparent for DMSO or for nitrophenide in YEPD except at 10 μM, a concentration at which slowing of the rate of growth of Δgpd1-pYES2/mt1D and Δgpd1-pYES2/MIPDH was observed as shown in FIG. 4. However, in YEPD with 1.5 M NaCl, nitrophenide was toxic to Δgpd1-pYES2/mt1D and Δgpd1-pYES2/MIPDH at concentrations as low as 2.5 uM and abolishes growth at 10 uM as shown in FIG. 4. Nitrophenide was also toxic to W303-1A under these conditions, but this strain grew more slowly than either of the transformants under salt pressure. The difference in rate of growth made comparisons between strains difficult.

The next assay concerns W303-1A. The assay can be described thus: Growth inhibition of wild-type yeast W303-1A in YEPD with 1.5 M NaCl (OD 600). It is filed as cell-based, Saccharomyces cerevisiae. As to the method:
as §1
Nitrophenide, a known inhibitor of MIPDH (Schmatz 1997), was used to validate the assay. The Δgpd1transformed with pYES21/m1pdh was grown in liquid YEPD medium, either supplemented with 1.5 M NaCal or not and containing one of 3 concentrations of nitrophenide (Aldrich Chemical Co.) dissolved in DMSO. Experiments were conducted in glass culture tubes prepared and processed as described above. […]

The test system of assay [2] is Δgpd1-pYES2/mt1D (Saccharomyces cerevisiae Δgpd1 expressing E. coli mt1D). In words: Growth inhibition of yeast transformant Δgpd1-pYES2/mt1D in liquid YEPD with or without 1.5 M NaCl (OD 600). The class given is cell-based. As to the method:
as §1, §2, §3
Nitrophenide was dissolved in DMSO and added to cultures at final concentrations of 1 μM, 2.5 μM or 10 μM. DMSO alone was also tested. […]

[3] abbreviates: YEPD with 1.5 M NaCl, tested at 1, 2.5 and 10 μM.
The mark [4] stands for this setting: YEPD without added NaCl, little toxicity at lower concentrations.

Regarding `O=[N+]([O-])c1cccc(SSc2cccc([N+](=O)[O-])c2)c1` [Nitrophenide, nitrophenide], the “concentration that abolishes growth” value in assay [1] (YEPD with 1.5 M NaCl) and in assay [2] (YEPD with 1.5 M NaCl) was 10 µM each time. Besides, the “lowest concentration toxic to growth” value in assay [1] (setting [3]) and in assay [2] (setting [3]) was 2.5 µM throughout. Moreover, the “concentration at which slowing of the rate of growth was observed” value in assay [1] (setting [4]) and in assay [2] (setting [4]) was 10 µM each time. Moreover, in assay [1] (medium containing 1.5 M NaCl), the “effect on growth (FIG. 4)” value is “dramatically suppressed”. In addition, in assay [1] (medium with no additional NaCl), the “toxicity compared with 1.5 M NaCl medium (FIG. 4)” value is recorded as “reduced”. In addition, in the assay with W303-1A, the toxicity to growth entry is recorded as “toxic”.
